Measurements from ChEMBL document CHEMBL4507290 (2021).

What was measured:
[1] = biological target: Calcium-dependent protein kinase 1 (Plasmodium falciparum) (UniProt P62344); conditions: Compound concentration 1000.0 nM
[2] = biological target: Dual specificity protein kinase CLK4 (Homo sapiens) (UniProt Q9HAZ1); conditions: Compound concentration 1000.0 nM
[3] = biological target: Tyrosine-protein kinase JAK1 (Homo sapiens) (UniProt P23458); conditions: Compound concentration 1000.0 nM
[4] = biological target: High affinity nerve growth factor receptor (Homo sapiens) (UniProt P04629); conditions: Compound concentration 1000.0 nM
[5] = test system: Mast/stem cell growth factor receptor Kit (Homo sapiens), P10721 [V559D,T670I]; conditions: Compound concentration 1000.0 nM
[6] = biological target: Muscarinic acetylcholine receptor M5 (Homo sapiens) (UniProt P08912); conditions: Compound concentration 10.0 uM
[7] = biological target: Cyclin-dependent kinase 11A (Homo sapiens) (UniProt Q9UQ88); conditions: Compound concentration 1000.0 nM
[8] = biological target: Beta-3 adrenergic receptor (Homo sapiens) (UniProt P13945); conditions: Compound concentration 10.0 uM
[9] = biological target: Calcium/calmodulin-dependent protein kinase type 1D (Homo sapiens) (UniProt Q8IU85); conditions: Compound concentration 1000.0 nM
[10] = biological target: Homeodomain-interacting protein kinase 3 (Homo sapiens) (UniProt Q9H422); conditions: Compound concentration 1000.0 nM
[11] = biological target: Alpha-2B adrenergic receptor (Homo sapiens) (UniProt P18089); conditions: Compound concentration 10.0 uM
[12] = biological target: Activin receptor type-1B (Homo sapiens) (UniProt P36896); conditions: Compound concentration 1000.0 nM
[13] = biological target: Cyclin-dependent kinase 15 (Homo sapiens) (UniProt Q96Q40); conditions: Compound concentration 1000.0 nM
[14] = biological target: Dual specificity protein kinase CLK1 (Homo sapiens) (UniProt P49759); conditions: Compound concentration 1000.0 nM
[15] = biological target: Tyrosine-protein kinase ABL2 (Homo sapiens) (UniProt P42684); conditions: Compound concentration 1000.0 nM
[16] = biological target: Discoidin domain-containing receptor 2 (Homo sapiens) (UniProt Q16832); conditions: Compound concentration 1000.0 nM
[17] = biological target: Insulin receptor (Homo sapiens) (UniProt P06213); conditions: Compound concentration 1000.0 nM
[18] = biological target: Insulin receptor-related protein (Homo sapiens) (UniProt P14616); conditions: Compound concentration 1000.0 nM
[19] = biological target: Serine/threonine-protein kinase Nek6 (Homo sapiens) (UniProt Q9HC98); conditions: Compound concentration 1000.0 nM
[20] = biological target: Mitogen-activated protein kinase kinase kinase 15 (Homo sapiens) (UniProt Q6ZN16); conditions: Compound concentration 1000.0 nM
[21] = test system: Proto-oncogene tyrosine-protein kinase receptor Ret (Homo sapiens), P07949 [V804M]; conditions: Compound concentration 1000.0 nM
[22] = test system: Epidermal growth factor receptor (Homo sapiens), P00533 [UNDEFINED MUTATION]; conditions: Compound concentration 1000.0 nM
[23] = biological target: Ribosomal protein S6 kinase alpha-3 (Homo sapiens) (UniProt P51812); conditions: Compound concentration 1000.0 nM
[24] = biological target: Vascular endothelial growth factor receptor 2 (Homo sapiens) (UniProt P35968); conditions: Compound concentration 1000.0 nM
[25] = biological target: RAC-beta serine/threonine-protein kinase (Homo sapiens) (UniProt P31751); conditions: Compound concentration 1000.0 nM
[26] = biological target: Mitogen-activated protein kinase kinase kinase 4 (Homo sapiens) (UniProt Q9Y6R4); conditions: Compound concentration 1000.0 nM
[27] = biological target: Serine/threonine-protein kinase BRSK1 (Homo sapiens) (UniProt Q8TDC3); conditions: Compound concentration 1000.0 nM
[28] = test system: Receptor-type tyrosine-protein kinase FLT3 (Homo sapiens), P36888 [D835H]; conditions: Compound concentration 1000.0 nM
[29] = biological target: Transient receptor potential cation channel subfamily M member 6 (Homo sapiens) (UniProt Q9BX84); conditions: Compound concentration 1000.0 nM
[30] = biological target: Mitogen-activated protein kinase kinase kinase 12 (Homo sapiens) (UniProt Q12852); conditions: Compound concentration 1000.0 nM
[31] = biological target: Phosphatidylinositol 4,5-bisphosphate 3-kinase catalytic subunit delta isoform (Homo sapiens) (UniProt O00329); conditions: Compound concentration 1000.0 nM
[32] = biological target: Serine/threonine-protein kinase DCLK1 (Homo sapiens) (UniProt O15075); conditions: Compound concentration 1000.0 nM
[33] = biological target: MAP kinase-interacting serine/threonine-protein kinase 1 (Homo sapiens) (UniProt Q9BUB5); conditions: Compound concentration 1000.0 nM
[34] = test system: ALK tyrosine kinase receptor (Homo sapiens), Q9UM73 [L1196M]; conditions: Compound concentration 1000.0 nM
[35] = biological target: Myotonin-protein kinase (Homo sapiens) (UniProt Q09013); conditions: Compound concentration 1000.0 nM
[36] = biological target: Mitogen-activated protein kinase 1 (Homo sapiens) (UniProt P28482); conditions: Compound concentration 1000.0 nM
[37] = biological target: Tyrosine-protein kinase Blk (Homo sapiens) (UniProt P51451); conditions: Compound concentration 1000.0 nM
[38] = biological target: Non-receptor tyrosine-protein kinase TNK1 (Homo sapiens) (UniProt Q13470); conditions: Compound concentration 1000.0 nM
[39] = biological target: Protein kinase C delta type (Homo sapiens) (UniProt Q05655); conditions: Compound concentration 1000.0 nM
[40] = biological target: Serine/threonine-protein kinase pim-3 (Homo sapiens) (UniProt Q86V86); conditions: Compound concentration 1000.0 nM
[41] = biological target: Cyclin-dependent kinase 16 (Homo sapiens) (UniProt Q00536); conditions: Compound concentration 1000.0 nM
[42] = biological target: Phosphorylase b kinase gamma catalytic chain, skeletal muscle/heart isoform (Homo sapiens) (UniProt Q16816); conditions: Compound concentration 1000.0 nM
[43] = biological target: Phosphatidylinositol 4,5-bisphosphate 3-kinase catalytic subunit alpha isoform (Homo sapiens) (UniProt P42336); conditions: Compound concentration 1000.0 nM
[44] = biological target: Tyrosine-protein kinase JAK2 (Homo sapiens) (UniProt O60674); conditions: Compound concentration 1000.0 nM
[45] = biological target: Tyrosine-protein kinase Fyn (Homo sapiens) (UniProt P06241); conditions: Compound concentration 1000.0 nM

Chain of Mitogen-activated protein kinase kinase kinase 4 (Homo sapiens) (Q9Y6R4 whole entry): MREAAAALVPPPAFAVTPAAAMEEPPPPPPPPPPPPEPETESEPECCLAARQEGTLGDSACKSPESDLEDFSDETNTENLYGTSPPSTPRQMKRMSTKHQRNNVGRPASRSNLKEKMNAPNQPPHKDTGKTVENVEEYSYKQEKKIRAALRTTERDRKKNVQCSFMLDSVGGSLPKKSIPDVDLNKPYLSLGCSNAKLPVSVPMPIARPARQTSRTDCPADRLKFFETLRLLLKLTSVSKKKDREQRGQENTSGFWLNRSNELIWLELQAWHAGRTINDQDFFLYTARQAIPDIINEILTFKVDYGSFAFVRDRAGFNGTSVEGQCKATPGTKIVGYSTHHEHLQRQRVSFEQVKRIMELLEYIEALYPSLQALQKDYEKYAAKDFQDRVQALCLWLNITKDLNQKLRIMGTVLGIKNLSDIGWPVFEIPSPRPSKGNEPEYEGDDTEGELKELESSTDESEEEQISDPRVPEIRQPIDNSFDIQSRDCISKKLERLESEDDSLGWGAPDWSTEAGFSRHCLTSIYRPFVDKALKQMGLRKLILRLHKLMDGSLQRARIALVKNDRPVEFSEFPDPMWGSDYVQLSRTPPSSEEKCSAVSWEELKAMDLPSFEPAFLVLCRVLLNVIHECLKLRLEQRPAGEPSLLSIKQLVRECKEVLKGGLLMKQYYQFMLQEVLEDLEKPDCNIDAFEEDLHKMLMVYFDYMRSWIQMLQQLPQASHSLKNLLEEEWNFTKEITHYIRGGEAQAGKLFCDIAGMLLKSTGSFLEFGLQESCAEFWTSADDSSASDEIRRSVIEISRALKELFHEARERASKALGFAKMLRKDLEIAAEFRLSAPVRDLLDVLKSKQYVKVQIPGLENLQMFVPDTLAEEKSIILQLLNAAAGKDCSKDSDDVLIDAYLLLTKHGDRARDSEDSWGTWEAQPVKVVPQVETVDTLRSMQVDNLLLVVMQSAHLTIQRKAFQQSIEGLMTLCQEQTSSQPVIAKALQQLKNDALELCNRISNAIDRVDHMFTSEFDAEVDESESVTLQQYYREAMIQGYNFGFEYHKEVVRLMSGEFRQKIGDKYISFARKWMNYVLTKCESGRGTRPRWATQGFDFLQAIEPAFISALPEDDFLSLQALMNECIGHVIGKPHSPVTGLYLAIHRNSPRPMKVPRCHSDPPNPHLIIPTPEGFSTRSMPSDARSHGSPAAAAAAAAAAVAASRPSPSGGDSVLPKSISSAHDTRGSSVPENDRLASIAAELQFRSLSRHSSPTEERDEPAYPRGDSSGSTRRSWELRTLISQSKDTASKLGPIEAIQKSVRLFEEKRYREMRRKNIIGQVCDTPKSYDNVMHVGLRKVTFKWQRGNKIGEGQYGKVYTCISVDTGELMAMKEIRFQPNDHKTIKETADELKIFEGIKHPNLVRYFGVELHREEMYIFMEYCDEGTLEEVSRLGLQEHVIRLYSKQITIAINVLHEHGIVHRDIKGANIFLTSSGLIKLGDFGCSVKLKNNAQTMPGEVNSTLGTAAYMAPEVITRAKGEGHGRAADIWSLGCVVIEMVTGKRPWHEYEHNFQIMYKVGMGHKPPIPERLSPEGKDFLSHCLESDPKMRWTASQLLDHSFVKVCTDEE
Chain of Dual specificity protein kinase CLK1 (Homo sapiens) (P49759 whole entry, looked up): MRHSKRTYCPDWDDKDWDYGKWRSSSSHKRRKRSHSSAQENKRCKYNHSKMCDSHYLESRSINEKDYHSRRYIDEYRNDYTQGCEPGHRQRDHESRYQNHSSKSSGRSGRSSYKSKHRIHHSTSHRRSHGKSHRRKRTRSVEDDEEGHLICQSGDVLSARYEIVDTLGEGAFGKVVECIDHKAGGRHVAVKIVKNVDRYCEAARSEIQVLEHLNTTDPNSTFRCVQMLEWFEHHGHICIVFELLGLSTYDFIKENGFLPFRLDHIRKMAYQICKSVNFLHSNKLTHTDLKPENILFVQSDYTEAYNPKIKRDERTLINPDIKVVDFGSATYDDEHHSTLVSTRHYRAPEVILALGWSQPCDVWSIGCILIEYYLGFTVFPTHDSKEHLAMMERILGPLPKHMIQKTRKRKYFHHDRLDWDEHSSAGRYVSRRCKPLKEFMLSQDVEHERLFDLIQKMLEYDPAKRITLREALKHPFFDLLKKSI
Chain of Alpha-2B adrenergic receptor (Homo sapiens) (P18089 whole entry): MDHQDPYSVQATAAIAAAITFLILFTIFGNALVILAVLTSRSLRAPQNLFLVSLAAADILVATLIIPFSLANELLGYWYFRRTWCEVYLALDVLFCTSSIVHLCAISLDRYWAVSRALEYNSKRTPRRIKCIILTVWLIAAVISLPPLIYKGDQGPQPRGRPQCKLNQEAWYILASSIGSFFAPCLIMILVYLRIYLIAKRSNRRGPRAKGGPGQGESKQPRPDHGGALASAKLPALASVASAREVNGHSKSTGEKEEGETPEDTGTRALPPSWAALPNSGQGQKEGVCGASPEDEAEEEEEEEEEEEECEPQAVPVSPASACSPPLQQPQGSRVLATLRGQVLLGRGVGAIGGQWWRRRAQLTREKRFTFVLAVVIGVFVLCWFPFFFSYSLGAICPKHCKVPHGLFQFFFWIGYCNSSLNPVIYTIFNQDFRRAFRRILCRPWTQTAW
Chain of Tyrosine-protein kinase JAK2 (Homo sapiens) (O60674 whole entry): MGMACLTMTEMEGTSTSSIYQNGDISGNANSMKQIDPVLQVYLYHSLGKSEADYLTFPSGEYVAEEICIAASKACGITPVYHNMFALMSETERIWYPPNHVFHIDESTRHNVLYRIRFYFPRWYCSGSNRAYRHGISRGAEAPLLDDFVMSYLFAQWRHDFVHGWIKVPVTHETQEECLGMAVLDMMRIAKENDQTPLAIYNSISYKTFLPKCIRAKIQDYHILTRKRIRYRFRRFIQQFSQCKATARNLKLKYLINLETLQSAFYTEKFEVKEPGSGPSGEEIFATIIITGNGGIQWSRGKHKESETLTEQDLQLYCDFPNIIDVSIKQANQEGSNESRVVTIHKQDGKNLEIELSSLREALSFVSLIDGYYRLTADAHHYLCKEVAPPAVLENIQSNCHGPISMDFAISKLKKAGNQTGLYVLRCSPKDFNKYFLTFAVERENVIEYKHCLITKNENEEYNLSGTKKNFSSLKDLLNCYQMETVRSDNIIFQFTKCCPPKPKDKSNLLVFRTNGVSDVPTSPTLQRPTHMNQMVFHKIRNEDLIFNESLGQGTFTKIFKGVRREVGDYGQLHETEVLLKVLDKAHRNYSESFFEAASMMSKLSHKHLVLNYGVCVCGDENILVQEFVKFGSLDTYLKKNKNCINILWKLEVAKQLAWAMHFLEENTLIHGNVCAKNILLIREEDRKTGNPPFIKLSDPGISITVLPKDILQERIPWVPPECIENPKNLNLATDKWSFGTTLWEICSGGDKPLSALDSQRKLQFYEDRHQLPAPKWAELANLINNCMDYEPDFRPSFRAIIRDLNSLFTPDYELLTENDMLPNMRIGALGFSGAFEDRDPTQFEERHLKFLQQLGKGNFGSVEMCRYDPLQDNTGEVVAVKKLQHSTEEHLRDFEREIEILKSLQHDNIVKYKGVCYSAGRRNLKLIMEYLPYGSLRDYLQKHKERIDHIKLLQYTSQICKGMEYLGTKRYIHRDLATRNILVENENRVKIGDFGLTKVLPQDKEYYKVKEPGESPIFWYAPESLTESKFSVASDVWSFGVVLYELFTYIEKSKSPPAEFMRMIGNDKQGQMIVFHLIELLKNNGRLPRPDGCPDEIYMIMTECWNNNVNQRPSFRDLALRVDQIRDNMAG
Chain of Homeodomain-interacting protein kinase 3 (Homo sapiens) (Q9H422 whole entry, looked up): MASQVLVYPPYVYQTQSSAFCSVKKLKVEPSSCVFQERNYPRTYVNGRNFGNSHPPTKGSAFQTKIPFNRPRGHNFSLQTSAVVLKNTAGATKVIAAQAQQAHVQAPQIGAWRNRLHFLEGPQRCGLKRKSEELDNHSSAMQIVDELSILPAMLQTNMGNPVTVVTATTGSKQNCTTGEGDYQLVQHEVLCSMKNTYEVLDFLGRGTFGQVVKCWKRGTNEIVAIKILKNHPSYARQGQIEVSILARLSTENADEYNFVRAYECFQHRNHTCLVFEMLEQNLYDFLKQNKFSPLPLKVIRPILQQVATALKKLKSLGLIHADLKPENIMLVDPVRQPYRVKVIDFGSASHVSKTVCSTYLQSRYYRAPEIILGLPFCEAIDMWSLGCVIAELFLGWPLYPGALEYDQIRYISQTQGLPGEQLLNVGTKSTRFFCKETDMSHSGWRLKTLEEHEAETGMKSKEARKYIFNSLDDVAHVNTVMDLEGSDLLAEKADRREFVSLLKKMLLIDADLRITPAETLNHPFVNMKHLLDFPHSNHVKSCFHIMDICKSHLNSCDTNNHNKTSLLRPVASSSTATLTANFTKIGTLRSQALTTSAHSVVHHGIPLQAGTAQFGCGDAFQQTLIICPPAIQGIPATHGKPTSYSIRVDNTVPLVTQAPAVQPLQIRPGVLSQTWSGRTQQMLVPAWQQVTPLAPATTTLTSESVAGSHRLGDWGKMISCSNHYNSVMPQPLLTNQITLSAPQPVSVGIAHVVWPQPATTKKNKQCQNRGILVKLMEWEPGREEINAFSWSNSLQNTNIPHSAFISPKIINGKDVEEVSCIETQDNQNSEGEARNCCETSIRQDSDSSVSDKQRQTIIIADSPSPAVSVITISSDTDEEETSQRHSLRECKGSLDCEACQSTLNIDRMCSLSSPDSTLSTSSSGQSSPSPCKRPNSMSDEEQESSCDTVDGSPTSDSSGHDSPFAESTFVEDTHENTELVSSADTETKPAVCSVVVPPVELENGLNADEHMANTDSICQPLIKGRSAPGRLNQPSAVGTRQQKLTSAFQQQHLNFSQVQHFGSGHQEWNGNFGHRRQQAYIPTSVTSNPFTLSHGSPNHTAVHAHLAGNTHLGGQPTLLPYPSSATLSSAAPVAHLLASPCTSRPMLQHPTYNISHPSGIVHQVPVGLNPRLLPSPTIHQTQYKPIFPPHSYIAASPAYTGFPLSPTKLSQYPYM

CN([C@@H]1CCc2c(CC(=O)O)c3cc(S(C)(=O)=O)ccc3n2C1)S(=O)(=O)c1ccc(F)cc1
inactive: residual activity [1] 75% | residual activity [2] 100% | residual activity [3] 94% | residual activity [4] 100% | residual activity [5] 100% | inhibition [6] -6.18% | residual activity [7] 100% | inhibition [8] 0.851% | residual activity [9] 99% | residual activity [10] 68% | inhibition [11] -2.39% | residual activity [12] 99% | residual activity [13] 84% | residual activity [14] 100% | residual activity [15] 100% | residual activity [16] 88% | residual activity [17] 100% | residual activity [18] 100% | residual activity [19] 84% | residual activity [20] 93% | residual activity [21] 100% | residual activity [22] 82% | residual activity [23] 81% | residual activity [24] 85% | residual activity [25] 92% | residual activity [26] 79% | residual activity [27] 94% | residual activity [28] 76% | residual activity [29] 74% | residual activity [30] 100% | residual activity [31] 100% | residual activity [32] 79% | residual activity [33] 86% | residual activity [34] 89% | residual activity [35] 100% | residual activity [36] 77% | residual activity [37] 99% | residual activity [38] 91% | residual activity [39] 100% | residual activity [40] 100% | residual activity [41] 84% | residual activity [42] 100% | residual activity [43] 100% | residual activity [44] 100% | residual activity [45] 99%

CN([C@@H]1CCc2c(CC(=O)O)c3ccccc3n2C1)S(=O)(=O)c1ccc(F)cc1 [MK-7246]
inactive: residual activity [1] 90% | residual activity [2] 100% | residual activity [3] 83% | residual activity [4] 100% | residual activity [5] 100% | inhibition [6] 6.97% | residual activity [7] 100% | inhibition [8] 26.9% | residual activity [9] 100% | residual activity [10] 71% | inhibition [11] 12.7% | residual activity [12] 96% | residual activity [13] 100% | residual activity [14] 100% | residual activity [15] 100% | residual activity [16] 98% | residual activity [17] 100% | residual activity [18] 100% | residual activity [19] 99% | residual activity [20] 100% | residual activity [21] 98% | residual activity [22] 100% | residual activity [23] 86% | residual activity [24] 82% | residual activity [25] 95% | residual activity [26] 87% | residual activity [27] 100% | residual activity [28] 91% | residual activity [29] 85% | residual activity [30] 100% | residual activity [31] 95% | residual activity [32] 82% | residual activity [33] 93% | residual activity [34] 74% | residual activity [35] 100% | residual activity [36] 97% | residual activity [37] 100% | residual activity [38] 99% | residual activity [39] 100% | residual activity [40] 100% | residual activity [41] 98% | residual activity [42] 100% | residual activity [43] 100% | residual activity [44] 100% | residual activity [45] 77%
